The text below walks through data of PubChem BioAssay (NCI).

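How tested: cells in 96-well plates exposed to compound for 48 hours at five concentrations. TGI marks complete inhibition of growth.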

Some test systems named below: HCT-15 colon; CAKI-1 renal; MCF7 breast; SK-MEL-28 melanoma; SF-268 CNS; MDA-MB-435; SK-OV-3 ovarian; SF-539 CNS; M14 melanoma; NCI-H460 lung; OVCAR-4 ovarian; OVCAR-5 ovarian.
What all share (test): NCI-60 cell line screen, 48 h

In the case of `N#CS/C(C(Cl)=C(Cl)Cl)=C(/Cl)[N+](=O)[O-]`, the TGI in the experiment with HCT-15 colon is 6.59 µM; in the experiment with CAKI-1 renal, 2.42 µM; in the experiment with MCF7 breast it was 29.3 µM; with SK-MEL-28 melanoma, 3.45 µM; in the experiment with SF-268 CNS it was 18.9 µM; in the experiment with MDA-MB-435, 3.19 µM. Moreover, the TGI with SK-OV-3 ovarian was 31.2 µM; in the experiment with SF-539 CNS, 16.1 µM; with M14 melanoma, 2.79 µM; in the experiment with NCI-H460 lung it was 33.2 µM.

With `COc1cc2c(cc1C)NC(=O)/C2=C/c1c(Cl)[nH]c2cc(C)c(OC)cc12`, the TGI was 18 µM in the experiment with OVCAR-4 ovarian; 17.5 µM in the experiment on HCT-15 colon; 21.2 µM in the experiment on CAKI-1 renal; 20.4 µM in the experiment on MCF7 breast; 24 µM in the experiment on SK-MEL-28 melanoma; 18.7 µM in the experiment with SF-268 CNS. Besides, the TGI with MDA-MB-435 was 8.49 µM; with OVCAR-5 ovarian, 25.8 µM; in the experiment on SK-OV-3 ovarian, 5.56 µM; in the experiment on SF-539 CNS, 1.33 µM; in the experiment with M14 melanoma, 13.7 µM; with NCI-H460 lung, 5.71 µM.

Take `C=CCN1CCC(OC(=O)C(O)(/C=C\CC)C2CCCC2)CC1` (stereo not drawn): the TGI in the experiment on OVCAR-4 ovarian, with HCT-15 colon, with CAKI-1 renal, with MCF7 breast, in the experiment with SK-MEL-28 melanoma and with SF-268 CNS was above 100 µM throughout. In addition, the TGI in the experiment on MDA-MB-435, in the experiment on OVCAR-5 ovarian, in the experiment with SK-OV-3 ovarian, in the experiment on SF-539 CNS and in the experiment with M14 melanoma was above 100 µM each time.

Take `COc1ccc(C2CCc3nc4nc(N)nc(N)c4cc3C2)cc1` (stereo not drawn): the TGI was 67.4 µM in the experiment with OVCAR-4 ovarian; above 100 µM with HCT-15 colon; above 100 µM in the experiment on CAKI-1 renal; 28.8 µM in the experiment on MCF7 breast; 65 µM in the experiment with SK-MEL-28 melanoma; above 100 µM in the experiment with SF-268 CNS. In addition, the TGI in the experiment on MDA-MB-435 was 78.2 µM; in the experiment on OVCAR-5 ovarian, above 100 µM; with SK-OV-3 ovarian, 25.3 µM; in the experiment on SF-539 CNS, 30.9 µM; in the experiment on M14 melanoma, above 100 µM; in the experiment with NCI-H460 lung, above 100 µM.

Regarding `NS(=O)(=O)c1nnc(NC(=O)CCC(=O)O)s1`, the TGI with OVCAR-4 ovarian, in the experiment on HCT-15 colon, in the experiment with CAKI-1 renal, with MCF7 breast, in the experiment with SK-MEL-28 melanoma and in the experiment on SF-268 CNS was above 100 µM throughout. Further, the TGI in the experiment on MDA-MB-435, with OVCAR-5 ovarian, with SK-OV-3 ovarian, with SF-539 CNS, in the experiment on M14 melanoma and with NCI-H460 lung was above 100 µM throughout.

Take `CC(C)OP(=O)(OC(C)C)C(C(F)(F)F)C(F)(F)F`: the TGI in the experiment on OVCAR-4 ovarian, with HCT-15 colon, in the experiment on CAKI-1 renal, in the experiment on MCF7 breast, with SK-MEL-28 melanoma and with SF-268 CNS was above 100 µM each time. Also, the TGI with MDA-MB-435, in the experiment on OVCAR-5 ovarian, with SK-OV-3 ovarian, in the experiment with SF-539 CNS and in the experiment with M14 melanoma was above 100 µM throughout.

As for `N#CC12COC3(CCCCC3C1(C#N)C#N)OC2=N` (stereo not drawn), the TGI is 14.2 µM in the experiment with CAKI-1 renal; 29.5 µM in the experiment on MCF7 breast; 46.8 µM in the experiment with SK-MEL-28 melanoma; 25.3 µM in the experiment on SF-268 CNS; 64.7 µM in the experiment on MDA-MB-435; 30.4 µM in the experiment on OVCAR-5 ovarian. Further, the TGI is above 100 µM with SK-OV-3 ovarian, 27.5 µM in the experiment with SF-539 CNS, 22.4 µM with M14 melanoma and 29.4 µM with NCI-H460 lung.

Turning to `CC(=O)OCC1C(C(C)OC(C)=O)CCC2C1CCC1(C)C(OC(C)=O)CCC21` (stereo not drawn), the TGI with OVCAR-4 ovarian was 39.6 µM; in the experiment with HCT-15 colon, 36.5 µM; in the experiment with CAKI-1 renal, above 100 µM; in the experiment on MCF7 breast, 33.8 µM; in the experiment with SK-MEL-28 melanoma it was 29.1 µM; with SF-268 CNS, 52.5 µM. Moreover, the TGI with MDA-MB-435 was 34.6 µM; in the experiment on OVCAR-5 ovarian, above 100 µM; in the experiment on SF-539 CNS it was 32.6 µM; in the experiment on M14 melanoma, 31.9 µM; in the experiment with NCI-H460 lung, 31.8 µM.

As for `CN1CN(c2ccccc2)C2(CCNCC2)C1=O`, the TGI in the experiment with OVCAR-4 ovarian, in the experiment with HCT-15 colon, in the experiment on CAKI-1 renal, in the experiment on MCF7 breast, with SK-MEL-28 melanoma and with SF-268 CNS was above 100 µM in each case. Besides, the TGI with MDA-MB-435, in the experiment with OVCAR-5 ovarian, in the experiment with SK-OV-3 ovarian, in the experiment on SF-539 CNS, in the experiment on M14 melanoma and with NCI-H460 lung was above 100 µM throughout.

Consider `CCCCc1ccc(Nc2nc3c(ncn3C3OC(COC(C)=O)C(OC(C)=O)C3OC(C)=O)c(=O)[nH]2)cc1` (stereo not drawn), for which the TGI in the experiment with OVCAR-4 ovarian was 52.9 µM; in the experiment on HCT-15 colon, above 100 µM; in the experiment on CAKI-1 renal, above 100 µM; in the experiment on MCF7 breast it was 63.2 µM; in the experiment on SF-268 CNS it was 37.7 µM; in the experiment with MDA-MB-435, 34.5 µM. In addition, the TGI with OVCAR-5 ovarian is above 100 µM; in the experiment with SK-OV-3 ovarian, 71.1 µM; in the experiment with SF-539 CNS, 57.9 µM; in the experiment on M14 melanoma, 41.2 µM; in the experiment with NCI-H460 lung, 32.7 µM.

For `O=C1CCc2c3c(c4c([nH]c5ccccc54)c2CC1)C(=O)NC3=O`, the TGI with OVCAR-4 ovarian is 13.1 µM; in the experiment on HCT-15 colon, above 100 µM; in the experiment on CAKI-1 renal it was 21.2 µM; in the experiment with MCF7 breast, 81 µM; with SK-MEL-28 melanoma, 12 µM; in the experiment with SF-268 CNS it was above 100 µM. Moreover, the TGI is 12.3 µM in the experiment on MDA-MB-435; above 100 µM in the experiment on OVCAR-5 ovarian; above 100 µM with SF-539 CNS; 44.6 µM in the experiment with M14 melanoma; 44.9 µM with NCI-H460 lung.

As for `Cc1nn2c(N)cc(=O)nc2nc1/C=C/c1ccc(N(C)C)cc1`, the TGI was above 100 µM in the experiment on OVCAR-4 ovarian; above 27.9 µM in the experiment with HCT-15 colon; above 100 µM in the experiment with CAKI-1 renal; above 100 µM in the experiment on MCF7 breast; above 100 µM in the experiment with SK-MEL-28 melanoma; above 100 µM in the experiment with SF-268 CNS. Besides, the TGI in the experiment with MDA-MB-435, in the experiment with OVCAR-5 ovarian, with SK-OV-3 ovarian, in the experiment with M14 melanoma and in the experiment with NCI-H460 lung was above 100 µM each time.

On to `O=C(N=Nc1ccc([N+](=O)[O-])cc1)NNc1ccc([N+](=O)[O-])cc1`, for which the TGI is 44.8 µM with OVCAR-4 ovarian; 62.8 µM with HCT-15 colon; above 100 µM in the experiment with CAKI-1 renal; 22.9 µM with MCF7 breast; 36.2 µM in the experiment with SK-MEL-28 melanoma; 80.1 µM in the experiment with SF-268 CNS. For the same compound, the TGI with MDA-MB-435 was 57.5 µM; with OVCAR-5 ovarian, 48 µM; in the experiment with M14 melanoma it was 31 µM; in the experiment on NCI-H460 lung it was 47.2 µM.

For the compound `Nn1c(CNc2ccc(-c3nnc(Nc4ccc(Cl)cc4)n3N)cc2)nnc1Nc1ccc(Cl)cc1`, the TGI with OVCAR-4 ovarian, with HCT-15 colon, in the experiment on CAKI-1 renal, in the experiment with MCF7 breast, in the experiment with SK-MEL-28 melanoma and in the experiment with SF-268 CNS was above 100 µM in each case. In addition, the TGI in the experiment on MDA-MB-435, in the experiment on OVCAR-5 ovarian, in the experiment with SK-OV-3 ovarian, with M14 melanoma and in the experiment on NCI-H460 lung was above 100 µM throughout.

Take `O=C(Nc1ccc(Cl)cc1)c1cc(S(=O)(=O)Nc2n[nH]c(=O)[nH]2)c(SSc2cc(Cl)c(C(=O)Nc3ccc(Cl)cc3)cc2S(=O)(=O)Nc2n[nH]c(=O)[nH]2)cc1Cl`: the TGI in the experiment on OVCAR-4 ovarian, in the experiment with HCT-15 colon, in the experiment with CAKI-1 renal, in the experiment with MCF7 breast, in the experiment with SK-MEL-28 melanoma and with SF-268 CNS was above 100 µM throughout. Moreover, the TGI in the experiment on MDA-MB-435, in the experiment with OVCAR-5 ovarian, in the experiment with SK-OV-3 ovarian, in the experiment on M14 melanoma and in the experiment with NCI-H460 lung was above 100 µM throughout.

In the case of `O=C(O)CC(NC(=O)C(F)(F)F)C(=O)NC1Cc2ccccc2OC1=O` (stereo not drawn), the TGI in the experiment with HCT-15 colon, in the experiment with CAKI-1 renal, in the experiment with MCF7 breast, in the experiment with SK-MEL-28 melanoma, in the experiment on SF-268 CNS and in the experiment with MDA-MB-435 was above 100 µM in each case. Also, the TGI in the experiment on OVCAR-5 ovarian, in the experiment with SK-OV-3 ovarian, with SF-539 CNS, in the experiment with M14 melanoma and in the experiment on NCI-H460 lung was above 100 µM each time.

`COc1ccc2c(c1)/C(=C(\C(Cl)=C(Cl)Cl)[N+](=O)[O-])N2`: the TGI in the experiment on OVCAR-4 ovarian, with HCT-15 colon, in the experiment with CAKI-1 renal, with MCF7 breast, with SK-MEL-28 melanoma and with SF-268 CNS was above 100 µM throughout. Further, the TGI in the experiment on MDA-MB-435, with OVCAR-5 ovarian, with SK-OV-3 ovarian, in the experiment with M14 melanoma and with NCI-H460 lung was above 100 µM in each case.

`COc1ccc2nc(-c3ccc(OC(=O)N(C)C)cc3)cn2c1`: the TGI with OVCAR-4 ovarian, with CAKI-1 renal, in the experiment with MCF7 breast, with SK-MEL-28 melanoma, in the experiment with SF-268 CNS and with MDA-MB-435 was above 100 µM in each case. The TGI in the experiment with OVCAR-5 ovarian, with SK-OV-3 ovarian, in the experiment on M14 melanoma and with NCI-H460 lung was above 100 µM each time.
